Consider 90 compounds from PubChem BioAssay AID489041 (Sanford-Burnham Center for Chemical Genomics, 2010).

The source made the active and inactive calls. How the calls were made is not given here.

This assay deals with HEK-293T NF-kB luciferase reporter counterscreen, luminescence. As to the kind of experiment: NF-kB reporter inhibition in HEK-293T, dose response, counter-screen for T-cell antigen receptor NF-kB inhibitors, HEK-293T cells, luminescence (AID 489041). On the technique in general: The purpose of a counterscreen is to sort out artefacts and off-target activity.
Consider `CN(Cc1ccccc1)C1=CC(=[N+]2CCCCC2)CC(C)(C)C1`, for which the IC50 was 0.73 µM.

Regarding `CCCCCCCCCCn1c2c(c(=N)c3c1CCC3)CCC2`, the IC50 was 1.29 µM.

For the compound `CCCC(=O)NC(c1ccc(C(C)C)cc1)c1ccc2cccnc2c1O` (stereo not given), the IC50 was 0.66 µM.

As to `CC1(C)Cc2nc3sc4c(=O)n(CC(=O)NCc5ccccc5)cnc4c3cc2CO1`, the IC50 is > 80 µM (inactive).

On to `CC1=C(C(=O)OCc2ccc3c(c2)OCO3)C(c2ccc(Cl)cc2)NC(=O)N1` (stereo not given), for which the IC50 is less than 0.16 µM.

Take `CCCC(=O)NC(c1ccccc1Cl)c1ccc2cccnc2c1O` (stereo not given): the IC50 is > 80 µM (inactive).

In the case of `CC(C)Cn1c(N)c(C(=O)CSc2ccc3c(c2)OCCO3)c(=O)n(C)c1=O`, the IC50 was 0.85 µM.

Consider `Cc1cc2c(cc1C)C(c1ccccc1OC(C)C)CC(=O)N2` (stereo not given), for which the IC50 was 13.3 µM.

As for `COC(=O)C[C@]1(C(=O)OC)CN(C#N)N(c2ccc(Cl)cc2)C12c1ccccc1-c1ccccc12`, the IC50 is 20.1 µM (inactive).

For `COc1ccc(-[n+]2c(-c3ccccc3)cc(-c3ccc(C)cc3)cc2-c2ccccc2)cc1`, the half-maximal inhibitory concentration (IC50) is 3.61 µM.

Take `Cc1ccc(-c2nc(-c3ccccn3)no2)cc1`: the IC50 is 3.83 µM.

Regarding `COc1ccc(C2=Nn3c([n+](C)c4ccccc43)SC2)cc1`, the IC50 was 2.63 µM.

Regarding `O=[N+]([O-])c1ccc(Sc2ccc(Cl)c(Cl)c2)nc1`, the IC50 is 64 µM (inactive).

Take `CCN1/C(=C/C(C)=C/c2sc3ccccc3[n+]2CC)Sc2ccccc21`: the IC50 is 0.78 µM.

As for `COc1ccc(C2=NOC(C(=O)NCc3cccs3)C2)cc1OC` (stereo not given), the IC50 is 35.2 µM (inactive).

Consider `C/C(=N\NC(=O)c1ccc(Cl)c(Cl)c1)c1ccccn1`, for which the IC50 is > 80 µM (inactive).

Take `CCOC(=O)c1ccc(Nc2nc(N)c3cc(OC)c(OC)cc3n2)cc1`: the IC50 was > 80 µM (inactive).

On to `Cc1nnc(N/N=C/c2ccccn2)[nH]c1=O`, for which the IC50 was > 80 µM (inactive).

`CCn1c2ccccc2c2cc(Nc3cc(C)nc4ncnn34)ccc21`: the IC50 was 1.34 µM.

In the case of `C=C1C(O)[C@@H]2O[C@]3(CC[C@H](/C=C/C(C)[C@@H]4CC(C)=CC5(O[C@H](C[C@@](C)(O)CO)CCC5O)O4)O3)CC[C@H]2O[C@@H]1C(O)CC(C)[C@H]1OC2(CCCCO2)CCC1C` (stereo not given in full), the IC50 was less than 0.16 µM.

Turning to `Cc1ccc(C[n+]2c(-c3ccc(C)cc3)cc(-c3ccc(C)cc3)cc2-c2ccc(C)cc2)cc1`, the IC50 is 1.19 µM.

For `O=C(N/N=C/c1ccccc1Cl)c1[nH]c2ccc(Br)cc2c1-c1ccccc1`, the IC50 is 38.3 µM (inactive).

Regarding `Cc1ccc2nc(SCC(=O)Nc3cc(C(F)(F)F)ccc3N3CCOCC3)[nH]c2c1`, the IC50 was 25.6 µM (inactive).

As for `COc1ccc(/C=N/NC(=O)COc2ccccc2-c2ccccc2)cc1`, the IC50 was 4.75 µM.

Regarding `O=C(NCc1cccs1)C1CCN(c2ccc(S(=O)(=O)N3CCOCC3)cc2Cl)CC1`, the IC50 was 8.56 µM.

As to `COC(=O)c1[nH]c2c(c1C)C(=O)CC(c1cccc(OC)c1)C2` (stereo not given), the IC50 was 2.58 µM.

As for `COc1cccc2sc(Nc3nnc(-c4ccccc4Cl)o3)nc12`, the IC50 was > 80 µM (inactive).

For the compound `COc1cc(CC(=O)OCC(=O)c2ccc3c(c2)OCCO3)cc(OC)c1OC`, the IC50 is 0.67 µM.

As to `NS(=O)(=O)c1ccc(Sc2nc3ccccc3s2)c([N+](=O)[O-])c1`, the IC50 is 7.35 µM.

As for `Cc1cc(C)cc(C(=O)N2CC(=O)Nc3ccccc32)c1`, the IC50 was 4.64 µM.

For `Cc1ccc(S(=O)(=O)NCc2ccncc2)cc1C`, the IC50 is 15.5 µM.

Turning to `CCN1C/C(=C/c2ccc(OC)c(O)c2)C(=O)/C(=C/c2ccc(OC)c(O)c2)C1`, the IC50 was 39 µM (inactive).

Take `COc1ccc(NC(=O)/C(Cl)=C(/Cl)S(=O)Cc2ccccc2)cn1` (stereo not given): the IC50 was 8.71 µM.

With `CCOC(=O)N1CCN(C(=O)C2CCCN(Cc3nc(-c4ccc(Cl)cc4)oc3C)C2)CC1` (stereo not given), the IC50 is 3 µM.

As for `CC(=O)Nc1ccc(S(=O)(=O)N2c3ccccc3C(C)=CC2(C)C)cc1`, the IC50 was 4.76 µM.

Take `Cc1ccc(C)c(NS(=O)(=O)c2ccc(-c3cnc(C4CC4)o3)cc2)c1`: the IC50 is 0.42 µM.

As for `CC(C)(C)C(=O)Nc1ccc(NC(=O)c2ccco2)nc1`, the IC50 was 0.27 µM.

In the case of `CCN1/C(=C/c2ccc3cc(C)ccc3[n+]2CC)Sc2ccc3sccc3c21`, the IC50 was 63 µM (inactive).

Regarding `CCOc1ccc(N(CC(=O)Nc2ccccc2C)S(=O)(=O)c2c(C)noc2C)cc1`, the IC50 was 17 µM.

`CN(C)S(=O)(=O)c1ccc(Nc2nc(C3CC3)nc3c2nnn3Cc2ccccc2Cl)cc1`: the IC50 is 4.04 µM.

For the compound `CCCN(CCC)C1=CC(=[N+]2CCCC2)CC(C)(C)C1`, the IC50 was 2.39 µM.

With `COC(=O)C1=C(CN2CCCc3ccccc32)NC(=O)NC1c1ccc(F)cc1` (stereo not given), the IC50 was 5.33 µM.

As to `COc1ccc(Cl)cc1NC(=O)CN(C)CC(=O)Nc1ccccc1N1CCOCC1`, the IC50 is 12 µM.

Turning to `CCO[C@@H]1OC(C(=O)NCc2nc3ccccc3[nH]2)=C[C@H](C(C)(C)C)[C@H]1CCCO`, the half-maximal inhibitory concentration (IC50) was 1.37 µM.

For `CCOCCOC(=O)c1[nH]c2c(c1C)C(=O)CC(c1ccccc1)C2` (stereo not given), the IC50 is 3.05 µM.

As for `Cc1c(C)c2cccnc2c2ncccc12`, the IC50 is 23.1 µM (inactive).

Take `Cc1cc(NC(=O)CSc2nc3ccccc3c(=O)n2C2CCCC2)no1`: the IC50 is 19.1 µM.

Regarding `Cc1ccc(C(=O)O/N=C(\N)c2ccccn2)c(C)c1`, the IC50 was 0.53 µM.

Turning to `CC(C)(C)c1ccc(C(=O)Nc2ccc(Oc3cccnc3)nc2)cc1`, the IC50 is 2.18 µM.

Regarding `COc1ccc(Nc2nc(-c3sc(C)nc3C)cs2)cc1`, the IC50 is 6.91 µM.

Take `CCC(O)C1CCN(C(=O)c2cc(COc3ccc4ncccc4c3)on2)CC1` (stereo not given): the IC50 is 1.72 µM.

As to `CCN(CC)c1ccc2nc3ccc(N)cc3[n+](-c3ccccc3)c2c1`, the IC50 was 2.72 µM.

Consider `CCc1ccc(N2C(=O)C(Cl)=C(Nc3ccc(C(=O)N4CCCC4)cc3)C2=O)cc1`, for which the IC50 was 66.9 µM (inactive).

Turning to `C=C(C=O)C[C@@H]1C[C@H](O)C2OC3C[C@]4(C)OC5/C=C\CC6OC7C(CC=CCC6OC5CCCC4OC3CC2O1)OC1CC2OC3CC(=O)OC3C[C@@H](C)C[C@@]2(C)OC1C[C@@H]7C` (stereo not given in full), the IC50 was > 80 µM (inactive).

For `CCOc1cc(C#N)c(NC(=O)c2cccnc2)cc1OCC`, the IC50 is 37.7 µM (inactive).

For the compound `Cc1cc(C)cc(NC(=O)c2ccc([N+](=O)[O-])o2)c1`, the IC50 was 31.5 µM (inactive).

Consider `Cc1ccc(N/C(N)=N/c2nc(CSc3nnc(C)s3)cc(=O)[nH]2)c(C)c1`, for which the IC50 is 4.17 µM.

For the compound `CCCCCCCCn1c2c(c(=N)c3c1CCC3)CCCC2`, the IC50 is 1.43 µM.

For `COc1ccc(NC(=O)C(=O)NCC2CCCN2S(=O)(=O)c2ccc(C)cc2)cc1` (stereo not given), the IC50 was 0.69 µM.

In the case of `O=C(c1cc(-c2ccncc2)nc2c(Cl)cccc12)N1CCN(c2ccccc2F)CC1`, the IC50 is 12.5 µM.

On to `COc1cccc(C2CC(=O)Nc3cc4c(cc32)CCC4)c1` (stereo not given), for which the IC50 was 10.7 µM.

Consider `COc1ccc(NC(=O)C(=O)NCC2CCCN2S(=O)(=O)c2cccs2)cc1` (stereo not given), for which the IC50 is 21 µM (inactive).

On to `COc1cccc(OC)c1C1=NCC(=O)Nc2c1oc1ccc(Br)cc21`, for which the IC50 was 3.28 µM.

For the compound `COc1ccc(CCN2C(=O)C3C4C=CC(C3C2=O)C2C(=O)N(CCc3ccc(OC)c(OC)c3)C(=O)C42)cc1OC` (stereo not given), the IC50 was 5.01 µM.

Consider `COc1ccc(NC(=O)/C(Cl)=C(/Cl)S(=O)Cc2ccc(Cl)cc2)cn1` (stereo not given), for which the IC50 is 7.65 µM.

Take `CC(C)CC[n+]1ccccc1/C=C/c1ccc(N(C)C)cc1`: the IC50 is 1.62 µM.

For the compound `CC(C)(C)c1nnc(N/N=C/c2ccccc2O)n(N)c1=O`, the IC50 is 28 µM (inactive).

As for `COc1cc(-c2noc(C)c2-c2ccc(N(C)C)nc2)cc(OC)c1OC`, the IC50 was 1.94 µM.

As to `COc1cccc(-c2cc(=O)c3cc(NC(=O)c4ccccc4)ccc3[nH]2)c1`, the IC50 was > 80 µM (inactive).

For `COc1ccccc1CNS(=O)(=O)c1ccc(-c2cnc(C3CC3)o2)cc1`, the IC50 is 2.6 µM.

For `C=CCNC(=S)N/N=C(\C)c1ccccn1`, the IC50 is > 80 µM (inactive).

In the case of `CN=c1scc(-c2cccs2)n1/N=C/c1ccccc1O`, the IC50 was less than 0.16 µM.

With `Cc1c(C(=O)N2CCOCC2)[nH]c2c1C(=O)CC(c1ccccc1Cl)C2` (stereo not given), the IC50 is 13.8 µM.

On to `COc1ccc(-n2nnnc2-c2cccc(OC)c2)cc1`, for which the IC50 is 19.7 µM.

For the compound `Cc1noc(C)c1CSc1nc2ccccc2c(=O)n1-c1ccccc1`, the IC50 was 9.04 µM.

Regarding `COC(=O)c1ccc(C)c(NS(=O)(=O)c2ccc3c(c2)OCCO3)c1`, the IC50 is 20.1 µM (inactive).

On to `CCOC(=O)c1[nH]c2c(c1C)C(=O)CC(c1ccco1)C2` (stereo not given), for which the IC50 is 4.38 µM.

For the compound `COc1ccccc1N=C(C)C1=C(O)CC(c2ccccc2)CC1=O` (stereo not given), the IC50 is 0.78 µM.

Turning to `CCCCCCCCCCCCCCCC[n+]1ccc(C(N)=O)cc1`, the IC50 was 46.7 µM (inactive).

`CCOC(=O)C(C)Oc1cccc2c(=O)n(CC(=O)NCc3ccc(F)cc3)ccc12` (stereo not given): the IC50 was 9.67 µM.

As to `CCN(CC)c1ccc(/C=N/NC(=O)c2nnn(-c3nonc3N)c2C(C)C)c(O)c1`, the IC50 is 0.22 µM.

Consider `Clc1cccc(Cl)c1/C=N/Nc1c(Cl)cncc1Cl`, for which the IC50 is 36.7 µM (inactive).

For `COc1ccc([C@H]2CC(=O)C=C(c3ccc(OC)cc3OC)C2)cc1`, the IC50 was 9.99 µM.

For `COc1ccc(S(=O)(=O)Nc2cccc(-c3ccc4nncn4n3)c2)cc1F`, the IC50 was 49.2 µM (inactive).

Consider `CCOc1ccccc1C1CC(=O)Nc2cc3c(cc21)OCCO3` (stereo not given), for which the IC50 was 4.19 µM.

In the case of `CC(C)Nc1ccc(C(CC(N)=O)NC(=O)Cc2ccc(Br)cc2)cc1[N+](=O)[O-]` (stereo not given), the IC50 is 68.8 µM (inactive).

On to `O=C(O)c1ccc(-c2ccc(-c3ccccc3)cc2)s1`, for which the IC50 is 9.3 µM.

Regarding `COc1ccc(C(=O)NNC(=O)c2ccccn2)cc1`, the IC50 is 2.92 µM.

With `C=CCn1c(C)cc(C2=NNC(=NCC)SC2)c1C`, the IC50 is 1.43 µM.

Take `COc1cc([C@@H]2c3cc4c(cc3[C@H](O)[C@H]3COC(=O)[C@H]23)OCO4)cc(OC)c1OC`: the IC50 is less than 0.16 µM.

As usually defined, the IC50 is the concentration at which inhibition is half-maximal.
